Laboratory results as given in patent US20070203066A1, “Compositions and methods for inhibiting cellular proliferation” (priority 2005, published 2007).
Non-standard residues stand in square brackets, D forms with d. Primed or numbered codes have the meaning given here. No end group written: not given here. Ida = iminodiacetic acid linker, its two carboxyls bind the Lys side-chain amines of two peptides, giving a homodimer; Ida(3) = iminodiacetic acid linker, Lys side-chain amines bound to its two carboxyl groups; Ida(4) = iminodiacetic acid linker (dimerization linker bound to lysine side chain); Ida″ = iminodiacetic acid linker bound to the Lys side-chain amine, forming a dimer; GP3 = not defined here

Test system: HUVECs
Assay type: cell-based
Conditions: 48 h
Experimental: HUVECs were routinely cultured to near confluency in EGM media (Clontech, Mountain View, California). The cells were trypsinized and plated in a 96-well plate at 5,000 cells per well per 100 μl EBM supplemented with 2% FCS and antibiotics. The cells were allowed to adhere to the plate for at least 12 hours. Then, bFGF at 10 ng/ml or VEGF at 5 ng/ml, and various concentrations of peptide, were added to the wells. The cells were cultured for 48 hours at 37 ° C. in a 5% CO2 atmosphere. Cell proliferation was determined using a bromo-deoxyuridine (BrdU) incorporation method as described by the manufacturer. Inhibition of cell proliferation was assessed by BrdU incorporation.

`CC[C@H](C)[C@H](NC(=O)[C@H](C)NC(=O)[C@@H](NC(=O)[C@H](C)NC(=O)[C@H](CCC(N)=O)NC(=O)[C@H](CCCNC(=N)N)NC(=O)[C@H](CCCNC(=N)N)NC(=O)[C@H](CCCNC(=N)N)NC(=O)[C@H](CCCNC(=N)N)NC(=O)[C@H](CCCNC(=N)N)NC(C)=O)C(C)C)C(=O)N[C@@H](Cc1c[nH]cn1)C(=O)N[C@@H](Cc1ccccc1)C(=O)N[C@@H](CCCCNC(=O)CN(CC(=O)NCCCC[C@H](NC(=O)[C@H](Cc1ccccc1)NC(=O)[C@H](Cc1c[nH]cn1)NC(=O)[C@@H](NC(=O)[C@H](C)NC(=O)[C@@H](NC(=O)[C@H](C)NC(=O)[C@H](CCC(N)=O)NC(=O)[C@H](CCCNC(=N)N)NC(=O)[C@H](CCCNC(=N)N)NC(=O)[C@H](CCCNC(=N)N)NC(=O)[C@H](CCCNC(=N)N)NC(=O)[C@H](CCCNC(=N)N)NC(C)=O)C(C)C)[C@@H](C)CC)C(N)=O)C(=O)CCNC(=O)OC(C)(C)C)C(N)=O` [Peptide 250] and `CC[C@@H](C)[C@@H](NC(=O)[C@@H](NC(=O)[C@H](C)NC(=O)[C@@H](NC(=O)[C@H](CCCNC(=N)N)NC(=O)[C@H](CCC(N)=O)NC(=O)[C@H](CCCNC(=N)N)NC(=O)[C@H](CCCNC(=N)N)NC(=O)[C@H](CCCNC(=N)N)NC(=O)[C@H](CCCNC(=N)N)NC(=O)[C@H](C)NC(C)=O)C(C)C)[C@@H](C)CC)C(=O)N[C@@H](Cc1ccccc1)C(=O)N[C@@H](CCCCNC(=O)CN(CC(=O)NCCCC[C@H](NC(=O)[C@H](Cc1ccccc1)NC(=O)[C@H](NC(=O)[C@@H](NC(=O)[C@H](C)NC(=O)[C@@H](NC(=O)[C@H](CCCNC(=N)N)NC(=O)[C@H](CCC(N)=O)NC(=O)[C@H](CCCNC(=N)N)NC(=O)[C@H](CCCNC(=N)N)NC(=O)[C@H](CCCNC(=N)N)NC(=O)[C@H](CCCNC(=N)N)NC(=O)[C@H](C)NC(C)=O)C(C)C)[C@@H](C)CC)[C@H](C)CC)C(N)=O)C(=O)CCNC(=O)OC(C)(C)C)C(N)=O` [Peptide 254] cannot be ordered by IC50: < 10 µM for the first, < 10 µM for the second.

Same assay, conditions: HUVEC proliferation, bFGF at 10 ng/ml or VEGF at 5 ng/ml, 48 hours, BrdU incorporation; read-out: IC50 on HUVECs

“227 (Ac-ARRRRQRVAIWFK; also: homodimer via Ida linker on side chain of Lys13) [compound 227]” and “336 (Ac-ARRRRQRVAIYFK-NH2; not fully specified (residue 13); also: homodimer via Lys13 side chain, Ida-PEG 20 kDa linker) [compound 336]” cannot be ordered by IC50: < 10 µM for the first, < 10 µM for the second.

“413 (Ac-WRRRRQAVAIYFK; not fully specified (residue 13, C-terminus); also: homodimer via Ida linker on Lys side chains, linker at 13 via Ida, other end not in the chain) [compound 413]” and “404 (Ac-IRRRRQAVAIYFK(Ida(3))-NH2; also: homodimer via Ida linker on Lys13 side chain, Boc on Ida amine) [compound 404]” cannot be ordered by IC50: < 10 µM for the first, < 10 µM for the second.

Going from “275 (Ac-RARRRQAVAIYFK-NH2; not fully specified (residue 13); also: homodimer via Ida linker on Lys13 side chain) [compound 275]” to “347 (Ac-ARRRRQRVAIYTK-NH2; not fully specified (residue 13); also: homodimer of residues 1-13 via Ida linker on Lys13 side chain) [compound 347]”, the IC50 rises from < 10 µM to > 30 µM. The first is the more potent here.

“390 (Ac-ARRRRQAVMIYFK; not fully specified (residue 13, C-terminus); also: homodimer of residues 1-13 via Ida linker at Lys13 side chain) [compound 390]” and KRKRKKQRVKIIFV [compound 87] cannot be ordered by IC50: < 10 µM for the first, < 10 µM for the second.

“261 (Ac-ARR[dR]RQRVAIIFK-NH2; not fully specified (residue 13); also: homodimer via Ida linker on Lys13 side chains) [compound 261]” and “388 (Ac-ARRRRQAVFIYFK-NH2; not fully specified (residue 13); also: homodimer via Ida linker on Lys13 side chain, Ida amine Boc) [compound 388]” cannot be ordered by IC50: < 10 µM for the first, < 10 µM for the second.

Going from “200 (Ac-RARRRQAVRIIF; also: dimer: C-terminal Phe bound to an amino group of a Lys linker, 2 chains per Lys) [compound 200]” to KTKRKRKKQRVKIAYE [compound 35], the IC50 rises from < 10 µM to > 30 µM. The first is the more potent here.

“NKRKKQRVKIIFVKVFIIKVRQKKRKN [compound 151]” and KAKRKRKKQRVKIIFVQNM [compound 122] cannot be ordered by IC50: < 10 µM for the first, < 10 µM for the second.

First: KTKRKRKKQRVKIAYEEIFVQAA [compound 45]
Second: 507 (Ac-RGDSPGGARRRRQRVAIYFK; also: homodimer via Ida linker on Lys20 side chain) [compound 507]
The IC50 of the first is higher: 10 to 30 µM for the first, < 10 µM for the second. The second is the more potent here.

RKKQRVKIIFV [compound 89] and “366 (Ac-ARRRRQRVAHYFK-NH2; not fully specified (residue 13); also: homodimer of residues 1-13 via Ida linker on K13 side chain) [compound 366]” cannot be ordered by IC50: > 30 µM for the first, > 30 µM for the second.

Compared with “249 (Ac-RRRRRQAVAIEFK; not fully specified (C-terminus); also: homodimer: side chain of Lys13 bound to an Ida linker) [compound 249]”, “187 (Ac-RRRHRQRVRIIF; also: dimer: C-terminal Phe bound to an amino group of a Lys linker, 2 chains per Lys) [compound 187]” is lower in IC50: 10 to 30 µM for the first, < 10 µM for the second.

Going from KTKRKRKKQRAKIIFVQNM [compound 113] to “358 (Ac-RRRRRQAVRIDIDFK; not fully specified) [compound 358]”, the IC50 rises from < 10 µM to > 30 µM. The first is the more potent here.

Going from KTKRKRAKQRVKIIFVQNM [compound 117] to KRKRKKQRVKIAYEEIFVQNM [compound 20], the IC50 rises from < 10 µM to > 30 µM.

“281 (Ac-RRRRHQAVAIYFK-NH2; not fully specified (residue 13); also: homodimer via Ida linker on Lys13 side chain) [compound 281]” and “428 (Ac-ARRRRQAVAIK(GP3)F; reading uncertain; also: homodimer via GP3 linker at K11) [compound 428]” cannot be ordered by IC50: < 10 µM for the first, < 10 µM for the second.

“436 (Ac-RRRRLQAVAIYFK(Ida(4)); not fully specified (C-terminus); also: homodimer via Ida linker at K13) [compound 436]” and “199 (Ac-RARRAQRVRIIF; also: dimer: C-terminal Phe bound to an amino group of a Lys linker, 2 chains per Lys) [compound 199]” cannot be ordered by IC50: < 10 µM for the first, < 10 µM for the second.

“499 (Ac-PRYRRQAVAIYFK(Ida″); not fully specified (C-terminus); also: homodimer via Ida linker on Lys13 side chain) [compound 499]” and “170 (Ac-RRRRRQRVRIIFK; also: homodimer via Ida-PEG 20 kDa linker on Lys13 side chains) [compound 170]” cannot be ordered by IC50: < 10 µM for the first, < 10 µM for the second.

Compared with “480 (Ac-PRRRWQAVAIYFK(Ida(3)); not fully specified (C-terminus); also: homodimer via Ida linker on Lys13 side chain) [compound 480]”, “213 (Ac-ARARRQRVAIIF; also: dimer: Phe C-termini joined via Lys linker) [compound 213]” is lower in IC50: 10 to 30 µM for the first, < 10 µM for the second. The second is the more potent here.

“215 (Ac-ARRRAQRVAIIF; also: dimer: Phe C-termini joined via Lys linker) [compound 215]” and “394 (Ac-ARRRRQAVSIYFK; not fully specified (residue 13, C-terminus); also: homodimer of residues 1-13 via Ida linker at Lys13 side chain) [compound 394]” cannot be ordered by IC50: < 10 µM for the first, < 10 µM for the second.

“241 (Ac-RRHRHQRVRIIF; also: dimer via C-terminal Phe to Lys linker) [compound 241]” and “303 (Ac-RRRRRQAVRIQIQFK(Ida)-NH2; also: homodimer via Ida linker on Lys15 side chain) [compound 303]” cannot be ordered by IC50: < 10 µM for the first, < 10 µM for the second.

Going from VKIAYEEIFVQNM [compound 43] to “287 (Ac-RRRRHQHVHIYFK-NH2; not fully specified (residue 13); also: homodimer via Ida linker on Lys13 side chain) [compound 287]”, the IC50 falls from > 30 µM to < 10 µM. The second is the more potent here.

“259 (Ac-ARRRR[dQ]RVAIIFK-NH2; not fully specified (residue 13); also: homodimer via Ida linker on Lys13 side chains) [compound 259]” and KTARKRKKQRVKIIFVQNM [compound 121] cannot be ordered by IC50: < 10 µM for the first, < 10 µM for the second.

First: 494 (Ac-PRNRRQAVAIYFK(Ida″); not fully specified (C-terminus); also: homodimer via Ida linker on Lys13 side chain) [compound 494]
Second: KRKKQRVKIAYEEIF [compound 68]
The IC50 of the first is lower: 10 to 30 µM for the first, > 30 µM for the second.

ATKRKRKKQRVKIIFVQNM [compound 123] and “382 (Ac-ARRRRQRVAIVFK-NH2; not fully specified (residue 13); also: homodimer via Ida linker on Lys13 side chain, Ida amine Boc) [compound 382]” cannot be ordered by IC50: < 10 µM for the first, < 10 µM for the second.

“211 (Ac-RRRRRQAVAIIF; also: dimer: Phe C-termini joined via Lys linker) [compound 211]” and KTKRKRKKQRVKIAYEEIFVKN [compound 13] cannot be ordered by IC50: < 10 µM for the first, < 10 µM for the second.

With “364 (Ac-ARRRRQRVAEYFK-NH2; not fully specified (residue 13); also: homodimer of residues 1-13 via Ida linker on K13 side chain) [compound 364]” the IC50 was > 30 µM.
